We go through ten compounds from article PMC5118688 (Scientific Reports, 2016).

For experiment [1] the following is noted: ref Hua et al. 11; cited from earlier work.
The conditions of experiment [2]: ref Liang et al. 9; cited from earlier work.
The subject of experiment [3] is mAb3C9. Kind of experiment: mimotope-based dcELISA (mAb3C9 and M20-GST-BAD/SA-HRP competitor). Format: binding, mouse. Conditions: for CR (%): M20-GST-BAD, (IC50 of parathion-methyl/IC50 of pesticide) × 100; for LOD (IC10): mAb3C9, M20-GST-BAD; for IC50 ± SD: mAb3C9, competitor M20-GST-BAD. On the procedure: To develop a mimotope-based dcELISA, the biotinylated mimotope fusion protein was firstly assembled with streptavidin-HRP conjugate (SA-HRP) utilized the high affinity of biotin and streptavidin. The assembly process was just mixing a certain amount of biotinylated mimotope fusion protein with SA-HRP and incubating them at 4 °C overnight before use as an HRP-labeled competitor.
An innovative mimotope-based dcELISA was developed and performed as below. […] TMB solution (100 μL/well) was added and incubated for 15 min at 37 °C.
The optimal condition for mimotope-based dcELISA was optimized as chemosynthesized antigen-based dcELISA. The selectivity and sensitivity of the developed mimotope-based dcELISA for the 24 OPs were also determined under the optimum condition.

For experiment [4], the system named is mAb4D11. Description: optimized mAb4D11-based dcELISA. Conditions: mAb4D11-based dcELISA.
Method: (§1) The dcELISA procedure was performed as below. First, the plate (Costar, Corning Inc., New York, USA) was coated with coating antigen (100 μL/well in 1 × PBS) for 1 h at 37 °C. Then, the wells were washed four times with PBST (1 × PBS with 0.05% (v/v) Tween-20) and blocked with 2% skim milk (200 μL/well) for 1 h at 37 °C. After washing four times, 50 μL analyte in MeOH-water solution and 50 μL mAb-HRP in PBS were added. The plate was incubated for 1 h at 37 °C and then washed four times before adding TMB solution (100 μL/well). After incubation for 15 min at 37 °C, 50 μL/well of H2SO4 (2 mol/L) was added to stop the reaction, and the absorbance was recorded at 450 nm using the Model 680 plate reader (Bio-Rad, USA).
(§2) 18 kinds of O,O-dimethyl OPs and 6 kinds of O,O-diethyl OPs were purchased from National Standards of China and used for the selectivity and sensitivity study using the optimized dcELISA procedure. […] The IC50 value and detection limit of each OP were calculated. The CR value, which was used to evaluate the selectivity of the method, was calculated using the following equation:
Experiment [5] deals with mAb3C9. Kind of experiment: optimized chemosynthesized antigen-based dcELISA (mAb3C9 and hapten 6-OVA). Conditions: for CR (%): Hapten 6-OVA, (IC50 of parathion-methyl/IC50 of pesticide) × 100; for LOD (IC10): mAb3C9, Hapten 6-OVA; for IC50 ± SD: mAb3C9, coating antigen Hapten 6-OVA.
Method: as §1, §2

SMILES strings stand for the structures. Values after ≈ are worked out from the molar mass of the structure shown. Where two headings read alike, the source gives them in different places.

The term IC50 denotes the point on the concentration scale where inhibition reaches its midpoint. On to `COP(=S)(OC)Oc1ccc([N+](=O)[O-])cc1Cl` [Isochlorthion], for which the IC50 in experiment [1] is 0.5766 µg/mL (≈ 1.94 µM).
In the case of `COc1nn(CSP(=S)(OC)OC)c(=O)s1` [Methidathion], the results for the IC50 in experiment [2] and in experiment [4] were 0.1917 µg/mL (≈ 0.634 µM) and over 5 µg/mL, respectively. Moreover, the “CR (%)” value in experiment [3] was 157.6%; in experiment [4], under 0.3%; in experiment [5], 162.9%. Further, the “LOD (IC10)” value in experiment [3] and in experiment [5] was 0.0006 µg/mL throughout. In addition, the “IC50 ± SD” value in experiment [3] was determined as 0.0032 ± 0.0002 µg/mL (≈ 0.0106 µM); in experiment [5], 0.0029 ± 0.0001 µg/mL (≈ 0.00959 µM).
With `CNC(=O)/C=C(\C)OP(=O)(OC)OC` [Monocrotophos], in experiment [3], the “CR (%)” value amounted to 2.5%, the “LOD (IC10)” value is 0.0616 µg/mL and the “IC50 ± SD” value worked out at 0.2014 ± 0.0043 µg/mL (≈ 0.902 µM). In addition, in experiment [4], the “CR (%)” value was 0.5%, the IC50 was 2.9145 µg/mL (≈ 13.1 µM) and the LOD is reported as 594.3 ng/mL. Moreover, in experiment [5], the “CR (%)” value is 2.6%, the “LOD (IC10)” value stood at 0.0432 µg/mL and the “IC50 ± SD” value was 0.1791 ± 0.0086 µg/mL (≈ 0.803 µM).
Turning to `CCOP(=O)(OCC)Oc1ccc([N+](=O)[O-])cc1` [Paraoxon-ethyl], in experiment [1], the IC50 is 0.1622 µg/mL (≈ 0.589 µM).
`COP(=O)(OC)Oc1ccc([N+](=O)[O-])cc1` [Paraoxon-methyl]: the IC50 in experiment [1] is 0.1187 µg/mL (≈ 0.48 µM). Besides, in experiment [3], the “CR (%)” value is on record as 1.7%, the “LOD (IC10)” value worked out at 0.0632 µg/mL and the “IC50 ± SD” value was 0.2949 ± 0.0093 µg/mL (≈ 1.19 µM). Further, in experiment [4], the “CR (%)” value is given as 0.5%, the IC50 is 2.6433 µg/mL (≈ 10.7 µM) and the LOD is given as 512.5 ng/mL. Besides, in experiment [5], the “CR (%)” value is recorded as 2.0%, the “LOD (IC10)” value was determined as 0.0524 µg/mL and the “IC50 ± SD” value is 0.231 ± 0.0121 µg/mL (≈ 0.935 µM).
With `COP(=S)(OC)SCN1C(=O)c2ccccc2C1=O` [Phosmet], the IC50 in experiment [2] was 0.1597 µg/mL (≈ 0.503 µM). In experiment [3], the “CR (%)” value is on record as 332.9%, the “LOD (IC10)” value stood at 0.0003 µg/mL and the “IC50 ± SD” value stood at 0.0015 ± 0.0001 µg/mL (≈ 0.00473 µM). Besides, in experiment [4], the “CR (%)” value is under 0.3% and the IC50 is over 5 µg/mL. For the same compound, in experiment [5], the “CR (%)” value worked out at 323.6%, the “LOD (IC10)” value came out at 0.0003 µg/mL and the “IC50 ± SD” value turned out to be 0.0014 ± 0.0001 µg/mL (≈ 0.00441 µM).
Turning to `CCOP(=S)(OCC)O/N=C(\C#N)c1ccccc1` [Phoxim], the IC50 in experiment [1] is over 100 µg/mL. In experiment [3], the “CR (%)” value was 0.2%, the “LOD (IC10)” value came to 0.4336 µg/mL and the “IC50 ± SD” value is 2.5779 ± 0.0721 µg/mL (≈ 8.64 µM). Further, in experiment [4], the “CR (%)” value was 5.9%, the IC50 amounted to 0.2441 µg/mL (≈ 0.818 µM) and the LOD is given as 49.5 ng/mL. In addition, in experiment [5], the “CR (%)” value worked out at 0.2%, the “LOD (IC10)” value was determined as 0.4354 µg/mL and the “IC50 ± SD” value worked out at 2.6524 ± 0.112 µg/mL (≈ 8.89 µM).
For the compound `CCN(CC)c1nc(C)cc(OP(=S)(OC)OC)n1` [Pirimiphos-methyl], in experiment [3], the “CR (%)” value turned out to be 6.0%, the “LOD (IC10)” value came out at 0.0222 µg/mL and the “IC50 ± SD” value came to 0.0837 ± 0.0038 µg/mL (≈ 0.274 µM). In experiment [4], the “CR (%)” value is 23.4%, the IC50 turned out to be 0.0621 µg/mL (≈ 0.203 µM) and the LOD came to 9.1 ng/mL. Also, in experiment [5], the “CR (%)” value is reported as 6.0%, the “LOD (IC10)” value was found to be 0.0156 µg/mL and the “IC50 ± SD” value came out at 0.0774 ± 0.0033 µg/mL (≈ 0.253 µM).
As to `CCOP(=S)(OCC)Oc1cnc2ccccc2n1` [Quinalphos], in experiment [3], the “CR (%)” value was 0.2%, the “LOD (IC10)” value worked out at 0.5318 µg/mL and the “IC50 ± SD” value worked out at 3.2266 ± 0.0592 µg/mL (≈ 10.8 µM). Besides, in experiment [4], the “CR (%)” value came to 7.9%, the IC50 worked out at 0.1842 µg/mL (≈ 0.617 µM) and the LOD was 32.5 ng/mL. Also, in experiment [5], the “CR (%)” value amounted to 0.2%, the “LOD (IC10)” value amounted to 0.5123 µg/mL and the “IC50 ± SD” value turned out to be 2.8243 ± 0.0952 µg/mL (≈ 9.47 µM).
Consider `COP(=O)(OC)O/C(=C\Cl)c1cc(Cl)c(Cl)cc1Cl` [Tetrachlorvinphos], for which, in experiment [3], the “CR (%)” value was found to be 8.5%, the “LOD (IC10)” value was determined as 0.0112 µg/mL and the “IC50 ± SD” value was 0.0597 ± 0.0033 µg/mL (≈ 0.163 µM). For the same compound, in experiment [4], the “CR (%)” value is given as 0.6%, the IC50 amounted to 2.4313 µg/mL (≈ 6.64 µM) and the LOD is 536.3 ng/mL. Moreover, in experiment [5], the “CR (%)” value amounted to 8.6%, the “LOD (IC10)” value is 0.0089 µg/mL and the “IC50 ± SD” value was 0.0544 ± 0.0021 µg/mL (≈ 0.149 µM).
